Measurements taken from patent US20230081357A1, “TOPICAL COMPOSITION COMPRISING CANNABIDIOL” (CURALEAF INTERNATIONAL LIMITED, priority 2020, published 2023).

Columns and labels:
[1] = test system: transfected rat basophil cells (RBL-2H3 ATCC® CRL-2256™) expressing the IgE human receptor (FcRI); assay: Anti-itch activity: basophil degranulation, β-hexosaminidase release; format: cell-based; details: for % degranulation inhibition: basophils activated with anti-IgE receptor
Source text: In vivo, a basophil cell degranulation mediated by IgE triggers an immediate allergic reaction characterized by the quick release of pre-stored inflammatory mediators (histamine, leukotrienes, thromboxane, basophilic enzymes, hexosaminidases), causing redness, rashes, itchiness and local inflammatory reactions. The ability of a composition to inhibit the degranulation of basophil cells is an indicator of its capability to inhibit the above described symptoms and above them mainly itching.
The test is carried out on a cell line of transfected rat basophil cells (RBL-2H3 ATCC® CRL-2256™) expressing the IgE human receptor (FcRI). Cells are kept in RPMI containing 10% FCS and 2 mM glutamine.
Untreated cells were used as negative control for the spontaneous degranulation.
A positive control consisting in cells exposed to anti-human IgE receptor antibodies was used to evaluate the maximal degranulation level.
Cell lysates in 1% Triton were also analyzed in order to evaluate the highest possible release of the analyzed molecules.
The release of β-hexosaminidase during degranulation was monitored on RBL-SX38 cell supernatant added with […]-N-acetyl-β-D-glucosamine (Sigma-Aldrich) in 0.1 M citrate buffer (pH 6.2) and incubated at 37° C. for 120 min. The reaction was terminated using 0.1M carbonate buffer (pH 10), and the absorbance was read at 405 nm (OD405).
The supernatant of untreated cells was used as negative control. The maximal stimulation of RBL-SX38 was evaluated on a 1% Triton X-100 lysate of the cell monolayer.
Sodium hyaluronate in serial dilutions, as indicated in the following Table 11, was also used as a control of the inhibition of basophil degranulation.
The inhibition degranulation percentage of activated basophil with IgE receptor has been calculated with the following formula: […]

[2] = In vitro soothing efficacy, cell viability by MTT after SLS; format: cell-based; details: human; read-out: % mean cell viability (standard deviation)
Experimental: (§1) The assay assessed quantitatively the effects of the sample in protecting skin cells and in inhibiting the […] reaction caused by moderate irritating agents as sodium lauryl sulfate (SLS) by means of a multilayer in vitro skin cell model.
(§2) The inhibition of the SLS-induced release of IL-1α cytokine was investigated (through specific ELISA assay) following exposure to the tested substance and respect to skin untreated samples. Cell viability was determined by the MTT assay.
(§3) Both assays used a reconstructed artificial human skin model comprising normal human epidermal keratinocytes, growing as an integrated three-dimensional cell culture model, perfectly mimicking the human skin in vitro. […] The model was supplied by Episkin (Lion, Batch 20-RHE-041).
Epidermis was treated for 70 minutes with SLS at 0.30% in order to induce IL-1α synthesis and release. […] As negative control, two epidermis units were treated with phosphate buffer, while epidermis units treated for 70 minutes with SLS 0.30% were used as positive control. […]
Epidermis units were treated with 1 mg/ml MTT solution (3-[4,5-dimethylthiazol-2-yl]-2,5-diphenyl tetrazolium bromide) for 3 h at 37° C. […] Two aliquots of every sample were transferred to a 96 well plate for the reading. The absorbance (OD) was read at the wavelength of 570 nm with a colorimeter (Tecan model Infinite F200) equipped with a microplate reader. […]

[3] = test system: human hair dermal papilla cells (HHDPCs); assay: Mitogenesis in hair bulb cells, cell viability by MTT after starving; format: cell-based; details: positive control (human insulin), % of negative control
Experimental: (§4) The test is carried out on human hair dermal papilla cells (HHDPCs) with fibroblast-like morphology. Cells are cultured in MEM containing 10% FBS and antibiotics.
(§5) Cells have been seeded in 24 wells plates and allowed to grow for 24 h at 37° C. and 5% CO2. Cells underwent starvation in serum-free medium for 6 hours before treatment.
(§6) The niosome dispersion was dissolved directly in the medium culture. The test was carried out in three replicates.
(§7) After 24- and 48-hours exposure the cell viability and the total cellular protein content were assessed on separate plates. Untreated cells were used as negative controls (NC); cells treated with human insulin were used as positive control (PC).
The cell viability was assessed by incubating the tissues for 2 hours with MTT (3-[4,5-dimethylthiazol-2-yl]-2,5-diphenyl tetrazolium bromide) solution. The precipitated formazan was then extracted using DMSO and quantified spectrophotometrically. The absorbance at 570 nm (OD570) was measured with a microplate reader (Tecan, Infinite 200 PRO), deducting background at 650 nm (OD650).
The cell viability was expressed in percentage terms according to the following formula: […]

[4] = test system: human hair dermal papilla cells (HHDPCs); assay: Mitogenesis in hair bulb cells, total cellular protein content (Bradford); format: cell-based; details: positive control (human insulin), % of negative control
Experimental: as §4, §5, §6, §7
The total cellular protein content was tested according to Bradford method. Cells at the end of the treatment were washed twice with PBS and lysed by treatment with purified water at 4° C. Dye reagent was added to each sample. […] Reading was made at 595 nm with a colorimeter equipped with a plate-reader.
To quantify proteins, a standard plot with albumin was designed and the sample concentrations were determined on the bases of their absorbance values using the interpolation plot formula. Mean values of every set of data were calculated, and for each sample the percentage of increase in the protein synthesis was determined by comparison with the negative control (NC) according to the following formula: […]

[5] = test system: IL-1α; assay: In vitro soothing efficacy, SLS-induced IL-1α release by ELISA; format: cell-based, human; details: SLS 0.30% for 70 minutes, then CBD-S5 diluted at 2%, positive control = SLS only
Experimental: as §1, §2, §3
Epidermis was treated for 70 minutes with SLS at 0.30% in order to induce IL-1α synthesis and release. […] As negative control, two epidermis units were treated with phosphate buffer, while epidermis units treated for 70 minutes with SLS 0.30% were used as positive control. Test was carried out in two replicates.
For IL-1α assay, the culture medium has been collected at 6 and 24 hours. […] IL-1α was determined in the medium culture of treated and not treated epidermis, using a direct ELISA test (Enzyme-linked immunosorbent assay). […] Samples were read at 450 nm. […]
Cytokine concentration was determined using a standard curve. […]

[6] = test system: IL-1α; assay: Particulate (PM2.5) resistance test, IL-1α release by ELISA; format: cell-based, human; details: sample alone, 24 h at 37° C.; 30 μl CBD-S5, 30 μl SDS 5% or 20 μg PM2.5; untreated RHE (NC) = 100%
Experimental: After incubation at 37° C. for 24 h in a controlled atmosphere of 5% CO2, the cell viability of the RHE sample was assessed by MTT assay, as described in Example 5A, while the culture medium was collected and analyzed for IL-1α release by ELISA assay, using an EMIL1ALPHA kit (Invitrogen-Thermo Scientific) with the following procedure.
100 μl of medium from each treatment was transferred to wells coated with anti-human IL-1α and incubated for 2 hours at room temperature. At the end of the incubation, the medium was removed and the wells were washed 4 times with 1× Wash Buffer. 100 μl of biotinylated antibody was added to each well and incubated for 1 hour at room temperature. At the end, the wells were washed 4 times with 1× Wash Buffer, treated with 100 μl of Streptavidin-HRP solution for 45 minutes at room temperature and finally washed 4 times with 1× Wash Buffer. 100 μl of TMB substrate was added to each well and incubated for 10 minutes in the dark. Finally, 100 μl of stop solution was added to each well and spectrophotometric readings were taken at wavelengths of 450 nm and 550 nm using the μQUANT BIO TEK Microplate Spectrophotometer instrument.
Changes in IL-1α levels released from the RHE tissue after each treatment were expressed as % values compared to the untreated RHE (NC) used as control (100%).

[7] = test system: reconstituted human epidermis (RHE); assay: In vitro irritation test on reconstituted human epidermis, MTT cell viability; format: cell-based; details: 60 minutes treatment, 24 hours incubation, % of negative control, 25 μg CBD-S5 or 30 μL 5% SDS
Experimental: The in vitro test consists of a topical exposure of the test substance on reconstituted human epidermis (RHE) followed by a cell viability test.
Cell viability is determined by the conversion of MTT (3-(4,5-dimethylthiazol-2-yl)-2,5-diphenyltetrazolium bromide) to a formazan blue salt, which is quantitatively measured after extraction from tissue. Conversion occurs via the mitochondrial enzyme succinate dehydrogenase, which is only active in living cells, causing the MTT tetrazole ring to open and formazan to form. Assessment of the viability of tissues exposed to the test substance compared to the negative control (treated with Dulbecco's phosphate buffered saline—DPBS) and the positive control (treated with sodium dodecyl sulphate—SDS) is used to predict skin irritation potential.
The reconstructed human epidermis model consists of normal human-derived epidermal keratinocytes cultured to recreate a highly differentiated multilayered human epidermis. […]
The optical density of the extracted formazan is determined spectrophotometrically at a wavelength of 570 nm using the μQUANT BIO TEK Microplate Spectrophotometer. Relative cell viability is calculated for each tissue as % of the mean optical density of the negative control tissues.

Sodium hyaluronate [Hyaluronic acid (HA)]
OD405 ([1]; 1.25 mg/ml + positive control (anti-human IgE receptor)): 0.879 | OD405 ([1]; 1.25 mg/ml, sample alone (spontaneous degranulation)): 0.086 | % degranulation inhibition ([1]; 1.25 mg/ml): 15.7% | OD405 ([1]; 2.5 mg/ml + positive control (anti-human IgE receptor)): 0.690 | OD405 ([1]; 2.5 mg/ml, sample alone (spontaneous degranulation)): 0.084 | % degranulation inhibition ([1]; 2.5 mg/ml): 35.3% | OD405 ([1]; 5 mg/ml + positive control (anti-human IgE receptor)): 0.527 | OD405 ([1]; 5 mg/ml, sample alone (spontaneous degranulation)): 0.077 | % degranulation inhibition ([1]; 5 mg/ml): 52.3% | OD405 ([1]; 10 mg/ml + positive control (anti-human IgE receptor)): 0.255 | OD405 ([1]; 10 mg/ml, sample alone (spontaneous degranulation)): 0.065 | % degranulation inhibition ([1]; 10 mg/ml): 80.6%

CCCCCCCCCCCCOS(=O)(=O)[O-].[Na+] [Positive control (PC), sodium lauryl sulfate]
viability at 70 min, 0.3 % [2]: 47.4%

Positive control: positive control of Example 10: cells treated with human insulin
% cell viability (ds) ([3]; 24 hours): 136.73% | % cell viability (ds) ([3]; 48 hours): 136.72 (8.16) % | % protein synthesis (ds) ([4]; 24 hours): 140.65% | % protein synthesis (ds) ([4]; 48 hours): 149.65 (10.83) % | IL-1α, 6 hours ([5]; culture medium at 6 hours): 105.57 pg/mL | IL-1α, 24 hours ([5]; culture medium at 24 hours): 597.32 pg/mL

CCCCCCCCCCCCOS(=O)(=O)[O-].[Na+] [PC, sodium dodecyl sulphate]
Mean IL-1α release (%) [6]: 235.35% | Mean relative viability (%) [7]: 2.16%

Triton X-100
OD405 ([1]; controls: maximal degranulation by anti-human IgE receptor antibodies, 1% Triton X-100 lysate, negative control 0.068): 1.852
